Here are results for 14 compounds from patent US4593090A, “Novel nitrosourea compounds, method for preparing same, and pharmaceutical composition containing same” (Gogo Kimura, priority 1981, dated 1986).

Series [1] is described as follows: Acute toxicity (LD50, Behrens-Karber method). The format is in vivo, ICR mice. The following applies: mouse, in vivo, ip, mortality during 30 days. Here is the method: Test compounds, dissolved or suspended in 0.5% aqueous CMC, were each intraperitoneally administered to ICR mice in a dose of 0.1 ml per 10 g body weight. LD50 (mg/kg) value of each test compound was calculated from the mortality of mice during 30 days by the Behrens-Karber method.

The subject of series [2] is Leukemia L1210. In words: Activity against Leukemia L1210, intraperitoneal, increase in life span of mice. The format is in vivo, female mice (BDF1 family). The following applies: for ED (maximum ILS) / ED30: Mus musculus, L1210, ip, ip once a day for 5 successive days; for ED (maximum ILS): daily dosage giving maximum increase of life span, read-out: O.D. (optimum dosage); for ED30: daily dosage increasing average survival days by 30%, read-out: ILS30; for Survivors after 60 days / Max. ILS % / Therapeutic ratio TR: ip; for Survivors after 60 days: 6-membered group; for Max. ILS %: 60-day observation, versus control; for Therapeutic ratio TR: O.D./ILS30. An outline of the steps: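 Female BDF1 mice (20 to 23 g, 6 per group) implanted ip with 1×10^5 L1210 cells; test compound given ip or orally once daily for 5 days starting 24 h later. ILS% from mean survival days vs untreated controls over 60 days; T.R. = O.D./ILS30.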

SMILES strings stand for the structures.

What is called LD50 is the dose expected to kill half of the subjects tested. Higher therefore signals a less toxic substance. In the case of `CCCN(C[C@@H]1O[C@@H](OCC(C)C)[C@@H](O)[C@H](O)[C@@H]1O)C(=O)N(CCCl)N=O` [Compound 133, 3-n-propyl-3-(isobutyl α-L-galactopyranose-6-yl)-1-(2-chloroethyl)-1-nitrosourea], the LD50 at 720 h in series [1] was 495 mg/kg. Further, in series [2], the ED (maximum ILS) came out at 150 mg/kg, the ED30 is 4.11 mg/kg, the “Survivors after 60 days” value is on record as 3/6 and the “Max. ILS %” value is above 360%. In addition, the “Therapeutic ratio TR” value in series [2] is given as 36.5.
For the compound `CCCCO[C@H]1O[C@H](CN(CCC)C(=O)N(CCCl)N=O)[C@H](O)[C@H](O)[C@H]1O` [Compound 106, 3-n-propyl-3-(n-butyl α-D-galactopyranose-6-yl)-1-(2-chloroethyl)-1-nitrosourea], the LD50 at 720 h in series [1] amounted to 430 mg/kg. Also, in series [2], the ED (maximum ILS) was 160 mg/kg, the ED30 turned out to be 3.74 mg/kg, the “Survivors after 60 days” value is given as 3/6 and the “Max. ILS %” value was above 340%. In addition, the “Therapeutic ratio TR” value in series [2] is 42.8.
With `CC(C)N(C(=O)N(CCCl)N=O)[C@@H]1CO[C@H](OC2CCCCC2)[C@H](O)[C@H]1O` [Compound 148, 3-isopropyl-3-(cyclohexyl α-D-xylopyranose-4-yl)-1-(2-chloroethyl)-1-nitrosourea], in series [1], the LD50 at 720 h amounted to 480 mg/kg. In series [2], the ED (maximum ILS) was determined as 160 mg/kg, the ED30 worked out at 3.81 mg/kg, the “Survivors after 60 days” value is 4/6 and the “Max. ILS %” value is recorded as above 425%. In addition, the “Therapeutic ratio TR” value in series [2] is given as 42.0.
Turning to `COCCCOC1OC(CO)C(O)C(O)C1N(CC(C)C)C(=O)N(CCCl)N=O` [Compound 68, 3-isobutyl-3-(3-methoxy-n-propyl α-D-glucopyranose-2-yl)-1-(2-chloroethyl)-1-nitrosourea], in series [1], the median lethal dose (LD50) at 720 h stood at 500 mg/kg. In series [2], the ED (maximum ILS) was 170 mg/kg, the ED30 stood at 4.43 mg/kg, the “Survivors after 60 days” value is 4/6 and the “Max. ILS %” value was above 425%. The “Therapeutic ratio TR” value in series [2] worked out at 38.4.
Consider `CCOCCCO[C@H]1O[C@H](CN(CC(C)C)C(=O)N(CCCl)N=O)[C@@H](O)[C@H](O)[C@H]1O` [Compound 32, 3-isobutyl-3-(3-ethoxy-n-propyl α-D-glucopyranose-6-yl)-1-(2-chloroethyl)-1-nitrosourea], for which, in series [1], the LD50 at 720 h was 495 mg/kg. Further, in series [2], the ED (maximum ILS) worked out at 170 mg/kg, the ED30 worked out at 2.91 mg/kg, the “Survivors after 60 days” value is reported as 6/6 and the “Max. ILS %” value is given as above 700%. The “Therapeutic ratio TR” value in series [2] is reported as 58.4.
`O=NN(CCCl)C(=O)N(CC1CCCO1)[C@H]1[C@H](O)[C@@H](OCCc2ccccc2)O[C@H](CO)[C@H]1O` (stereo partly drawn) [Compound 143, 3-tetrahydrofurfuryl-3-(phenyl-β-ethyl α-D-altropyranose-3-yl)-1-(2-chloroethyl)-1-nitrosourea]: in series [1], the LD50 at 720 h came out at 460 mg/kg. For the same compound, in series [2], the ED (maximum ILS) is 150 mg/kg, the ED30 is 3.52 mg/kg, the “Survivors after 60 days” value is 4/6 and the “Max. ILS %” value is reported as above 425%. Also, the “Therapeutic ratio TR” value in series [2] was 42.6.
Turning to `CC(C)CO[C@@H]1OC[C@H](N(C(=O)N(CCCl)N=O)C2CCCCC2)[C@H](O)[C@H]1O` [Compound 152], in series [1], the LD50 at 720 h amounted to 550 mg/kg. Moreover, in series [2], the ED (maximum ILS) worked out at 170 mg/kg, the ED30 stood at 4.31 mg/kg, the “Survivors after 60 days” value is given as 4/6 and the “Max. ILS %” value is recorded as above 425%. Moreover, the “Therapeutic ratio TR” value in series [2] turned out to be 43.1.
Regarding `O=NN(CCCl)C(=O)N(CCCCO)C1C(OC2CCCCC2)OC(CO)C(O)C1O` [Compound 66, 3-(4-hydroxy-n-butyl)-3-(cyclohexyl α-D-glucopyranose-2-yl)-1-(2-chloroethyl)-1-nitrosourea], the LD50 at 720 h in series [1] worked out at 620 mg/kg. In series [2], the ED (maximum ILS) is 200 mg/kg, the ED30 worked out at 8.55 mg/kg, the “Survivors after 60 days” value is reported as 3/6 and the “Max. ILS %” value was above 345%. The “Therapeutic ratio TR” value in series [2] is listed as 23.4.
In series [1], `O=NN(CCCl)C(=O)N(CC1CCCCC1)[C@H]1[C@@H](O)[C@@H](CO)O[C@H](OC2CCCCC2)[C@@H]1O` [Compound 128, 3-cyclohexylmethyl-3-(cyclohexyl α-D-galactopyranose-3-yl)-1-(2-chloroethyl)-1-nitrosourea] showed a 50% lethal dose (LD50) at 720 h of 650 mg/kg. Moreover, in series [2], the ED (maximum ILS) was 200 mg/kg, the ED30 amounted to 5.99 mg/kg, the “Survivors after 60 days” value is 3/6 and the “Max. ILS %” value is given as above 350%. Also, in series [2], the “Therapeutic ratio TR” value was determined as 33.4.
`CC(C)CN(C[C@H]1O[C@H](OC2CCCCC2)[C@H](O)[C@@H](O)[C@@H]1O)C(=O)N(CCCl)N=O` [Compound 36, 3-isobutyl-3-(cyclohexylα-D-glucopyranose-6-yl)-1-(2-chloroethyl)-1-nitrosourea]: in series [1], the LD50 at 720 h stood at 580 mg/kg. In series [2], the ED (maximum ILS) turned out to be 180 mg/kg, the ED30 is 3.69 mg/kg, the “Survivors after 60 days” value is given as 6/6 and the “Max. ILS %” value is on record as above 700%. Moreover, the “Therapeutic ratio TR” value in series [2] was found to be 48.8.
On to `CCOCCN(C[C@H]1O[C@H](OC2CCCCC2)[C@H](O)[C@@H](O)[C@H]1O)C(=O)N(CCCl)N=O` [Compound 102, 3-(2-ethoxyethyl)-3-(cyclohexyl α-D-galactopyranose-6-yl)-1-(2-chloroethyl)-1-nitrosourea], for which the LD50 at 720 h in series [1] was found to be 680 mg/kg. Moreover, in series [2], the ED (maximum ILS) came to 200 mg/kg, the ED30 was 3.81 mg/kg, the “Survivors after 60 days” value is listed as 5/6 and the “Max. ILS %” value is above 625%. For the same compound, in series [2], the “Therapeutic ratio TR” value is given as 52.5.
The compound `COc1ccc(CO[C@H]2O[C@H](CN(CC(C)C)C(=O)N(CCCl)N=O)[C@@H](O)[C@H](O)[C@H]2O)cc1` [Compound 51, 3-isobutyl-3-(p-methoxybenzyl α-D-glucopyranose-6-yl)-1-(2-chloroethyl)-1-nitrosourea] gave an LD50 at 720 h in series [1] of 350 mg/kg. Further, in series [2], the ED (maximum ILS) worked out at 120 mg/kg, the ED30 was determined as 3.3 mg/kg, the “Survivors after 60 days” value is 4/6 and the “Max. ILS %” value was above 430%. Further, in series [2], the “Therapeutic ratio TR” value was 36.4.
In series [1], `CC(C)CN(C(=O)N(CCCl)N=O)[C@H]1[C@@H](OC2CCCCC2)O[C@H](CO)[C@@H]1O` [Compound 166, 3-isobutyl-3-(cyclohexyl α-D-xylofuranose-2-yl)-1-(2-chloroethyl)-1-nitrosourea] yielded an LD50 at 720 h of 450 mg/kg. Besides, in series [2], the ED (maximum ILS) came to 150 mg/kg, the ED30 amounted to 4.75 mg/kg, the “Survivors after 60 days” value is on record as 3/6 and the “Max. ILS %” value is given as above 345%. Besides, the “Therapeutic ratio TR” value in series [2] was 31.6.
For the compound `CC(C)CO[C@H]1O[C@H](CO)[C@@H](O)[C@H](O)[C@H]1N(CC(C)C)C(=O)N(CCCl)N=O` [Compound 61, 3-isobutyl-3-(isobutyl α-D-glucopyranose-2-yl)-1-(2-chloroethyl)-1-nitrosourea], the LD50 at 720 h in series [1] is 595 mg/kg. Besides, in series [2], the ED (maximum ILS) was found to be 190 mg/kg, the ED30 was found to be 5.86 mg/kg, the “Survivors after 60 days” value is 3/6 and the “Max. ILS %” value is above 340%. Also, the “Therapeutic ratio TR” value in series [2] was 32.4.
